“Also recorded” adds a separate entry of the source.
Columns and labels:
[1] = test system: T47-D human ductal carcinoma cells; test: Cell proliferation assay (cell counts), T47-D; assay type: cell-based; conditions: T47D, Table 5, 72 hours
Method: (§1) Tolytoxin and the other new scytophycin compounds are potent anticancer and antifungal agents. The cytotoxicity of tolytoxin and other new scytophycin compounds was determined using a cell proliferation assay, which tested the effect of the compounds on increases in cell numbers.
(§2) Cell lines were grown in plastic dishes (Falcon) in Eagle's basal medium supplemented with 5% newborn calf serum (KB), Fisher's medium supplemented with 10% horse serum (L1210), Dulbecco's modified Eagle's medium supplemented with 5% heat-inactivated fetal calf serum (LoVo), minimal essential medium supplemented with 2% heat-inactivated chicken serum (HEp-2), RPMI-1640 supplemented with 10% heat-inactivated fetal calf serum (T-47D, COLO-201) or 20% heat-inactivated fetal calf serum (HL-60, KATO-III), or McCoy's 5A supplemented with 10% heat-inactivated fetal calf serum (HBL-100). All cell culture media were supplemented with 50 μg/ml gentamycin sulfate. The cultures were incubated at 37° C. in a humidified atmosphere containing 5% carbon dioxide.
(§3) Cultures were exposed to graded concentrations of tolytoxin and reincubated for 72 hours in the presence of tolytoxin. […] Cell numbers were determined by hemacytometer counts. The IC50 for each cell line was determined by plotting the logarithm of the tolytoxin concentration versus growth (cell number as a percentage of the control) of the treated cells.

[2] = test system: KB human epidermoid carcinoma cells; test: Cell proliferation assay (cell counts), KB; assay type: cell-based; conditions: 72 h
Method: as §1, §2
Cultures were exposed to graded concentrations of tolytoxin and reincubated for 72 hours in the presence of tolytoxin. Three dishes were used for each treatment. Cell numbers were determined by hemacytometer counts. The IC50 for each cell line was determined by plotting the logarithm of the tolytoxin concentration versus growth (cell number as a percentage of the control) of the treated cells.
The other new scytophycin compounds are also potent cytotoxins. For example, the IC50 of the scytophycins against KB human epidermoid carcinoma, LoVo human adenocarcinoma, and L1210 murine leukemia were determined using the cell proliferation assay described for tolytoxin.

[3] = test system: HL-60 human promyelocytic leukemia cells; test: Cell proliferation assay (cell counts), HL-60; assay type: cell-based; conditions: Table 5, 72 hours
Method: as §1, §2, §3

[4] = test system: Murine leukemia (L1210) cells; test: Polynucleation / DNA content by flow cytometry; assay type: cell-based; conditions: 10 nM
Method: The following procedure employs new scytophycins to produce polynucleated mammalian cells. Murine leukemia (L1210) cells at a density of 1×10^5 cells/mL were treated with tolytoxin for periods ranging from 4 to 24 hours. Tolytoxin or the appropriate vehicle as a control was added in a volume of not more than 4.2 μL per 10 mL of cell suspension. The cell suspension was incubated at 37° C. in a humidified atmosphere of 95% air, 5% carbon dioxide. At the conclusion of the incubation, the cultures were chilled on ice and centrifuged at 200×g (gravity) for 10 minutes. The pelleted cells were fixed in 70% ethanol: 30% water for 1 hour. Aliquots of the fixed cell suspensions were washed twice with 0.01M phosphate buffered saline, pH 7.2-7.4. The cells were resuspended at approximately 1×10^6 /mL in modified Krishan's reagent (Krishan, 1975) containing 0.005% propidium iodide, ribonuclease A at 50 units/mL, 0.1% sodium citrate, and 0.3% Nonidet P-40. Following a 30 minute incubation at 4° C. the cell suspensions were passed 4 times through a 26-gauge needle before analysis on a Coulter Epics C flow cytometer, equipped with an Innova 90 argon laser tuned at 488 nm and set at 200 milliwatts. The fluorescence of 10,000 cells was used to generate the DNA histograms.

[5] = test system: Human epidermoid carcinoma (KB) cells; test: Cell shape and nuclear protrusion by microscopy; assay type: cell-based
Method: In the following procedure new scytophycins were employed to cause nuclear protrusion in mammalian cells. Human epidermoid carcinoma (KB) cells were plated on plastic tissue-culture dishes in Dulbecco's modified Eagle's medium at 1×10^5 cells per 60 mm dish. The cell cultures were incubated overnight at 37° C. in a humidified atmosphere of 95% air and 5% carbon dioxide to allow the cells to settle and become attached. Following the incubation, tolytoxin or the appropriate vehicle control was added in a volume of not more than 35 μL per 5 mL of culture medium. After an additional incubation period ranging from 1 to 4 hours, the culture medium was removed and the cell layer washed twice with phosphate-buffered saline (PBS), pH 7.2. The washed cell layer was stained for 15 minutes with 0.01% acridine orange in PBS. Following staining, the cell suspension was washed for 15 minutes with two changes of PBS to remove unbound stain and photographed on a Zeiss IM-35 photomicroscope equipped with brightfield and epifluorescence optics.

[6] = test system: COLO-201 human colon adenocarcinoma cells; test: Cell proliferation assay (cell counts), COLO-201; assay type: cell-based; conditions: Table 5, 72 hours
Method: as §1, §2, §3

[7] = test system: SKVLB (multi-drug resistant subline of SKOV3); test: cells; assay type: cell-based, Human
Method: Human ovarian carcinoma cells (SKOV3) and a subline made multi-drug resistant by slowly increasing vinblastine in the culture medium over the course of many passages (SKVLB) were grown in Earle's basal medium (BME) containing 10% fetal calf serum. The SKVLB cells were maintained in the presence of 1 µg/mL vinblastine.
Cell proliferation was estimated by measurement of protein content of the cultured cells, as described by Skehan et al. (1990). Cells were plated into 24-well plates at approximately 10% confluency in BME and were allowed to attach and recover for at least 24 hours. The cells were then treated with the scytophycins or appropriate control for 48 hours. After the incubation, the medium was removed from each well and cells fixed by addition of 10% (w/v) trichloroacetic acid (TCA) (4° C.). The cells were incubated at 4° C. for one hour and then washed five times with water to remove TCA. The TCA-fixed cells were then stained for 30 minutes with 0.4% (w/v) sulforhodamine B prepared in 1% acetic acid. Following the staining, the cell layers were washed four times with 1% acetic acid. The cell layer was dissolved in 10 mM unbuffered tris-hydroxymethylaminomethane base. Absorbance of the solution was determined at 564 nm. Antiproliferative activity is manifested as decreased production of cellular protein.

## COC1CC2C=CCC(CC(OC)C3(CO3)C(OC)CC(OC)C(C)C(C(C)C(O)C(C)CCC(=O)C(C)C(OC)C(C)/C=C/N(C)C=O)OC(=O)/C=C/C(C)=C/C1O)O2 (centres unmarked) [Tolytoxin, 6-hydroxy-7-O-methylscytophycin B]
[1]
  IC50: 4.9 nM
[2]
  IC50: 5.3 nM
[3]
  IC50: 4.8 nM
[4]; 4 to 24 hours
  multinucleated cells observed by microscopy: increasing numbers of multinucleated cells
  proportion of cells in the G2 M phase: gradual increase
[4]; by 16 hours
  fraction of the cells with DNA contents greater than 4C: approximately 1/3
[5]; 4 nM, 1 hour
  cell shape and surface appearance: fibroblastoid cellular shape and the appearance of blebs or zeioses on the cell surfaces; also recorded: the cells have lost their normal extended fibroblastoid shape, and the appearance of blebs or zeioses on the cell surface is apparent
[5]; 8nM, 4 hours
  migration of cell nucleus: the cell nuclei have migrated out of their respective cell bodies; also recorded: The cell nucleus has migrated outside the body of the cell and now occupies one of the zeiotic processes
[6]
  IC50: 0.52 nM
[7]; Homo sapiens, SKVLB, 48 h, read-out: IC50 SKVLB
  IC50: 25 nM
[7]; Table 7, SKVLB vs SKOV3, 2880 min
  Fold-Resistance: 1
